Laboratory results published in patent publication EP0876161B1, “CONTRAST MEDIA” (priority 1996, dated 1997).

Columns and labels:
[1] = Osmolality determined in water, compared to the EGTA complex; assay type: physicochemical; conditions: concentration 41 mM
mice = test: Maximum tolerated dose (MTD) in mice of formulated complex solution; assay type: in vivo; conditions: complex given as the formulated solution
[2] = Osmolality of the formulated complex solution; assay type: physicochemical

Na4[(W3SO3)2(EGTA)3] [Na4[(W3SO3)2(EGTA)3].10H2O]
osmolality [1]: 199 mmol/kg | maximum tolerated dose (MTD) (mice): ~7.75 mmoles complex/kg | osmolality ([2]; 168 mM solution, pH 6.65): 685 mmol/kg

Na4[(W3SO3)2(OBETA)3] [Na4[(W3SO3)2(OBETA)3].10H2O]
maximum tolerated dose (MTD) (mice): -4.35 mmoles complex/kg | osmolality ([2]; 107 mM solution, pH 7.03): 498 mmol/kg

Na4[(W3S3O)2(EGTA)3] [Na4[(W3S3O)2(EGTA)3] .6H2O]
maximum tolerated dose (MTD) (mice): ~3.95 mmoles complex/kg | osmolality ([2]; 121 mM solution, pH 6.95): 517 mmol/kg

Na4[(W3SO3)2(MeO-PDTA)3] [Na4[(W3SO3)2(MeO-PDTA)3] . 7H2O]
osmolality ([2]; 140mM solution, pH 6.5): 563 mmol/kg

Na4[(W3SO3)2(PDTA)3] [Na4[(W3SO3)2(PDTA)3] 11H2O]
maximum tolerated dose (MTD) (mice): > 6.5 mmoles complex/kg | osmolality ([2]; 79mM solution, pH 6.6): 311 mmol/kg

(NMG)4[(W3SO3)2(HO-PDTA)3]
maximum tolerated dose (MTD) (mice): ~2.17 mmoles complex/kg | osmolality ([2]; 153mM solution, pH 6.98): 499 mmol/kg

Na4[(W3SO3)2(BDTA)3] [Na4[(W3SO3)2(BDTA)3].12H2O]
maximum tolerated dose (MTD) (mice): ~ 2.55 mmoles complex/kg | osmolality ([2]; 120mM solution, pH 7.4): 459 mmol/kg
